molecular target: Cyclin-H/Cyclin-dependent kinase 7 (Homo sapiens, UniProt P51946+P50613); test: Inhibition of CDK7/Cyclin H (unknown origin)
Sequence (P51946 whole entry): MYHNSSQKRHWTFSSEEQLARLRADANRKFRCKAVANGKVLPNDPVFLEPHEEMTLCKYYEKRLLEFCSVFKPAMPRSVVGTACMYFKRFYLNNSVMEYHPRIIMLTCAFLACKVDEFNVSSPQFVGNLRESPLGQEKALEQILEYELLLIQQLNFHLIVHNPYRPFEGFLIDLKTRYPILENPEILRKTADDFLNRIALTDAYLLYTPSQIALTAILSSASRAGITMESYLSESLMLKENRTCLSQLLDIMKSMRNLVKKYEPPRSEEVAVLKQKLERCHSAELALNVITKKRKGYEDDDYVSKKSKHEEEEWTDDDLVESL
Sequence (P50613 whole entry): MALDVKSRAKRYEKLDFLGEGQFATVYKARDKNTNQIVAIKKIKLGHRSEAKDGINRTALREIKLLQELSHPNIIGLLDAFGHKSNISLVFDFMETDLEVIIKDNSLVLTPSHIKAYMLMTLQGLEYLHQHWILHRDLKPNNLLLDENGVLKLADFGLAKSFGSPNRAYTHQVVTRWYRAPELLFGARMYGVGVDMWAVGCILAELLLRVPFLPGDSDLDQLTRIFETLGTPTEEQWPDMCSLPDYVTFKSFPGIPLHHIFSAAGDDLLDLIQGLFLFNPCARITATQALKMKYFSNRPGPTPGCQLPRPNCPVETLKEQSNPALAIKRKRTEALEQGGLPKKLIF

IC50 [nM] | SMILES
402 | CN(C)C/C=C/C(=O)Nc1ccc(C(=O)N2CCC[C@@H](Nc3ncc(Cl)c(-c4c[nH]c5ccccc45)n3)C2)nc1
919 | C=CC(=O)Nc1ccc(C(=O)N2CCC[C@@H](Nc3ncc(Cl)c(-c4c[nH]c5ccccc45)n3)C2)nc1
74 | CN(C)C/C=C/C(=O)Nc1ccc(N2CCC[C@@H](Nc3ncc(Cl)c(-c4c[nH]c5ccccc45)n3)C2)nc1
269 | CN(C)C/C=C/C(=O)Nc1ccc(O[C@@H]2CCC[C@@H](Nc3ncc(Cl)c(-c4c[nH]c5ccccc45)n3)C2)c(F)c1

Reference: BindingDB's records for doi:10.1016/j.ejmech.2021.113481 (Harvard Medical School, 2021)
